Test results as given in PubChem BioAssay (NCI).
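Tested at 5 concentrations; 48 h exposure; 96-well plates; endpoints linearly interpolated, else capped at highest concentration. At the TGI there is no net growth.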

Legend:
Experiment in all cases: NCI tumour cell line growth inhibition, 48 h
MALME-3M melanoma = tested on: MALME-3M melanoma
HT29 colon = tested on: HT29 colon
SNB-78 CNS = tested on: SNB-78 CNS
HOP-92 NSCLC = tested on: HOP-92 NSCLC
SK-MEL-28 melanoma = tested on: SK-MEL-28 melanoma
K-562 leukemia = tested on: K-562 leukemia
HL-60(TB) leukemia = tested on: HL-60(TB) leukemia
OVCAR-5 ovarian = tested on: OVCAR-5 ovarian
P388/ADR leukemia = tested on: P388/ADR leukemia
SN12K1 renal = tested on: SN12K1 renal
KM20L2 colon = tested on: KM20L2 colon
A498 renal = tested on: A498 renal
OVCAR-3 ovarian = tested on: OVCAR-3 ovarian
M19-MEL melanoma = tested on: M19-MEL melanoma
OVCAR-8 ovarian = tested on: OVCAR-8 ovarian
NCI-H226 lung = tested on: NCI-H226 lung
NCI-H460 lung = tested on: NCI-H460 lung
SNB-75 CNS = tested on: SNB-75 CNS
RXF 393 renal = tested on: RXF 393 renal
NCI-H23 lung = tested on: NCI-H23 lung
SF-295 CNS = tested on: SF-295 CNS
A549 NSCLC = tested on: A549 NSCLC
DLD-1 colon = tested on: DLD-1 colon
KM12 colon = tested on: KM12 colon
NCI-H522 lung = tested on: NCI-H522 lung
HCC-2998 colon = tested on: HCC-2998 colon
SNB-19 CNS = tested on: SNB-19 CNS
SW-620 colon = tested on: SW-620 colon
EKVX NSCLC = tested on: EKVX NSCLC
IGROV1 ovarian = tested on: IGROV1 ovarian
SK-MEL-5 melanoma = tested on: SK-MEL-5 melanoma
CAKI-1 renal = tested on: CAKI-1 renal
XF 498 CNS = tested on: XF 498 CNS
P388 leukemia = tested on: P388 leukemia
UO-31 renal = tested on: UO-31 renal
NCI/ADR-RES ovarian = tested on: NCI/ADR-RES ovarian
CCRF-CEM leukemia = tested on: CCRF-CEM leukemia
U251 CNS = tested on: U251 CNS
SF-268 CNS = tested on: SF-268 CNS
SK-MEL-2 melanoma = tested on: SK-MEL-2 melanoma
UACC-62 melanoma = tested on: UACC-62 melanoma
MOLT-4 leukemia = tested on: MOLT-4 leukemia
HOP-18 NSCLC = tested on: HOP-18 NSCLC
LOX IMVI melanoma = tested on: LOX IMVI melanoma
HOP-62 NSCLC = tested on: HOP-62 NSCLC
MCF7 breast = tested on: MCF7 breast
COLO 205 colon = tested on: COLO 205 colon
SN12C renal = tested on: SN12C renal
UACC-257 melanoma = tested on: UACC-257 melanoma
RPMI-8226 leukemia = tested on: RPMI-8226 leukemia
OVCAR-4 ovarian = tested on: OVCAR-4 ovarian
DMS 114 small cell lung = tested on: DMS 114 small cell lung
HCT-116 colon = tested on: HCT-116 colon
SF-539 CNS = tested on: SF-539 CNS
DMS 273 small cell lung = tested on: DMS 273 small cell lung
HCT-15 colon = tested on: HCT-15 colon
SK-OV-3 ovarian = tested on: SK-OV-3 ovarian
786-0 renal = tested on: 786-0 renal
RXF-631 renal = tested on: RXF-631 renal
SR leukemia = tested on: SR leukemia
TK-10 renal = tested on: TK-10 renal
M14 melanoma = tested on: M14 melanoma
ACHN renal = tested on: ACHN renal
LXFL 529 NSCLC = tested on: LXFL 529 NSCLC

`Cc1nc2ccccc2c(=O)n1Nc1ccc(C(=O)O)cc1` gave a TGI (MALME-3M melanoma) greater than 100 µM, a TGI (HT29 colon) greater than 100 µM and a TGI (SNB-78 CNS) greater than 100 µM. It also gave a TGI (HOP-92 NSCLC) greater than 100 µM, a TGI (SK-MEL-28 melanoma) greater than 100 µM and a TGI (K-562 leukemia) greater than 100 µM. The TGI (HL-60(TB) leukemia) was greater than 100 µM, the TGI (OVCAR-5 ovarian) was greater than 100 µM and the TGI (P388/ADR leukemia) was greater than 100 µM. The TGI (SN12K1 renal) was greater than 100 µM, the TGI (KM20L2 colon) was greater than 100 µM and the TGI (A498 renal) was greater than 100 µM. For the same compound, the TGI (OVCAR-3 ovarian) was greater than 100 µM, the TGI (M19-MEL melanoma) was greater than 100 µM and the TGI (OVCAR-8 ovarian) was greater than 100 µM. For the same compound, the TGI (NCI-H226 lung) was greater than 100 µM, the TGI (NCI-H460 lung) was greater than 100 µM and the TGI (SNB-75 CNS) was greater than 100 µM. For the same compound, the TGI (RXF 393 renal) was greater than 100 µM, the TGI (NCI-H23 lung) was greater than 100 µM and the TGI (SF-295 CNS) was greater than 100 µM. The TGI (A549 NSCLC) was greater than 100 µM, the TGI (DLD-1 colon) was greater than 100 µM and the TGI (KM12 colon) was greater than 100 µM. It also gave a TGI (NCI-H522 lung) greater than 100 µM, a TGI (HCC-2998 colon) greater than 100 µM and a TGI (SNB-19 CNS) greater than 100 µM. The TGI (SW-620 colon) was greater than 100 µM, the TGI (EKVX NSCLC) was greater than 100 µM and the TGI (IGROV1 ovarian) was greater than 100 µM. For the same compound, the TGI (SK-MEL-5 melanoma) was greater than 100 µM, the TGI (CAKI-1 renal) was greater than 100 µM and the TGI (XF 498 CNS) was greater than 100 µM. For the same compound, the TGI (P388 leukemia) was greater than 100 µM, the TGI (UO-31 renal) was greater than 100 µM and the TGI (NCI/ADR-RES ovarian) was greater than 100 µM. For the same compound, the TGI (CCRF-CEM leukemia) was greater than 100 µM, the TGI (U251 CNS) was greater than 100 µM and the TGI (SF-268 CNS) was greater than 100 µM. The TGI (SK-MEL-2 melanoma) was greater than 100 µM, the TGI (UACC-62 melanoma) was greater than 100 µM and the TGI (MOLT-4 leukemia) was greater than 100 µM. The TGI (HOP-18 NSCLC) was greater than 100 µM, the TGI (LOX IMVI melanoma) was greater than 100 µM and the TGI (HOP-62 NSCLC) was greater than 100 µM. For the same compound, the TGI (MCF7 breast) was greater than 100 µM, the TGI (COLO 205 colon) was greater than 100 µM and the TGI (SN12C renal) was greater than 100 µM. It also gave a TGI (UACC-257 melanoma) greater than 100 µM, a TGI (RPMI-8226 leukemia) greater than 100 µM and a TGI (OVCAR-4 ovarian) greater than 100 µM. The TGI (DMS 114 small cell lung) was greater than 100 µM, the TGI (HCT-116 colon) was greater than 100 µM and the TGI (SF-539 CNS) was greater than 100 µM. For the same compound, the TGI (DMS 273 small cell lung) was greater than 100 µM, the TGI (HCT-15 colon) was greater than 100 µM and the TGI (SK-OV-3 ovarian) was greater than 100 µM.

`ClCCN(CC#CCCCC#CCN(CCCl)CCCl)CCCl` showed a TGI (MALME-3M melanoma) of 32.5 µM, a TGI (HT29 colon) of 24.8 µM and a TGI (SNB-78 CNS) of 57.5 µM. It also gave a TGI (HOP-92 NSCLC) of 43.1 µM, a TGI (786-0 renal) of 20.7 µM and a TGI (SK-MEL-28 melanoma) of 38.6 µM. For the same compound, the TGI (K-562 leukemia) was 37.7 µM, the TGI (HL-60(TB) leukemia) was 7.18 µM and the TGI (OVCAR-5 ovarian) was 26 µM. For the same compound, the TGI (P388/ADR leukemia) was 9.09 µM, the TGI (SN12K1 renal) was 25.3 µM and the TGI (RXF-631 renal) was 23.8 µM. It also gave a TGI (KM20L2 colon) of 27.7 µM, a TGI (SR leukemia) of 7.66 µM and a TGI (A498 renal) of 26.4 µM. The TGI (OVCAR-3 ovarian) was 26.7 µM, the TGI (TK-10 renal) was 41 µM and the TGI (M19-MEL melanoma) was 29.5 µM. For the same compound, the TGI (M14 melanoma) was 28.6 µM, the TGI (OVCAR-8 ovarian) was 23.9 µM and the TGI (NCI-H226 lung) was 37.2 µM. The TGI (NCI-H460 lung) was 16.3 µM, the TGI (SNB-75 CNS) was 36.4 µM and the TGI (ACHN renal) was 15.2 µM. It also gave a TGI (RXF 393 renal) of 33.5 µM, a TGI (NCI-H23 lung) of 29.3 µM and a TGI (SF-295 CNS) of 28.1 µM. It also gave a TGI (A549 NSCLC) of 31.8 µM, a TGI (LXFL 529 NSCLC) of 28.3 µM and a TGI (DLD-1 colon) of 35.7 µM. For the same compound, the TGI (KM12 colon) was 44.4 µM, the TGI (NCI-H522 lung) was 21.7 µM and the TGI (HCC-2998 colon) was 32.9 µM. The TGI (SNB-19 CNS) was 27.6 µM, the TGI (SW-620 colon) was 23.3 µM and the TGI (EKVX NSCLC) was 44.8 µM. For the same compound, the TGI (IGROV1 ovarian) was 35.1 µM, the TGI (SK-MEL-5 melanoma) was 24.3 µM and the TGI (CAKI-1 renal) was 32.7 µM. The TGI (P388 leukemia) was 9.73 µM, the TGI (UO-31 renal) was 47 µM and the TGI (NCI/ADR-RES ovarian) was 58.1 µM. For the same compound, the TGI (CCRF-CEM leukemia) was 10.6 µM, the TGI (U251 CNS) was 23.8 µM and the TGI (SF-268 CNS) was 33.5 µM. It also gave a TGI (SK-MEL-2 melanoma) of 23.4 µM, a TGI (UACC-62 melanoma) of 20 µM and a TGI (MOLT-4 leukemia) of 6.59 µM. It also gave a TGI (HOP-18 NSCLC) of 44.5 µM, a TGI (LOX IMVI melanoma) of 20.9 µM and a TGI (HOP-62 NSCLC) of 29.3 µM. It also gave a TGI (MCF7 breast) of 37.5 µM, a TGI (COLO 205 colon) of 30.3 µM and a TGI (SN12C renal) of 21.2 µM. It also gave a TGI (UACC-257 melanoma) of 29.2 µM, a TGI (RPMI-8226 leukemia) of 13.4 µM and a TGI (OVCAR-4 ovarian) of 61.2 µM. The TGI (DMS 114 small cell lung) was 15.8 µM, the TGI (HCT-116 colon) was 25.3 µM and the TGI (SF-539 CNS) was 27 µM. For the same compound, the TGI (DMS 273 small cell lung) was 16.6 µM, the TGI (HCT-15 colon) was 27.2 µM and the TGI (SK-OV-3 ovarian) was 27.8 µM.
